Publication PMC4008261, “Rewiring of regenerated axons by combining treadmill training with semaphorin3A inhibition” (Molecular Brain, 2014)

Biological target: T1, semaphorin3A (Homo sapiens, UniProt Q14563)
T1 sequence (Q14563 21-771): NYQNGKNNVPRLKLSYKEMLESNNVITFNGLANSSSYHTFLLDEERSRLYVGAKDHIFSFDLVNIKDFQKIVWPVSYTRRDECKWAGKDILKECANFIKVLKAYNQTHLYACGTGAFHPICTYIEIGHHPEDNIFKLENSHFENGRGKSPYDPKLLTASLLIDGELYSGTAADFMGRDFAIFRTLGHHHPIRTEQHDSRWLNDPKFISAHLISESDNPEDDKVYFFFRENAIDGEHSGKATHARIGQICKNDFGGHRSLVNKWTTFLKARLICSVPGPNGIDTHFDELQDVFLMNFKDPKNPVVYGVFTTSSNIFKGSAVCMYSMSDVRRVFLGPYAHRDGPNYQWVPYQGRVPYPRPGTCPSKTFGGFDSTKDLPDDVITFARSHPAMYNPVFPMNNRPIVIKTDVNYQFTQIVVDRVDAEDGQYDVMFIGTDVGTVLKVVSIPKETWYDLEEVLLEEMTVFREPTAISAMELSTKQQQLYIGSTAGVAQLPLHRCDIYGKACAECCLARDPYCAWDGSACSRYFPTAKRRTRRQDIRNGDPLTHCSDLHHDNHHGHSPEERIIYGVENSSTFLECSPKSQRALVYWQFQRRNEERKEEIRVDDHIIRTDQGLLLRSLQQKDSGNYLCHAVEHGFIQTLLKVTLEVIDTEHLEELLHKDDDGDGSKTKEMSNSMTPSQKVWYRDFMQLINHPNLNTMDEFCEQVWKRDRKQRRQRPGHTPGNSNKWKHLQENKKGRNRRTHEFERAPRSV
Experiment: Collagen co-culture assay (E8 chick DRGs and semaphorin3A-expressing COS7 cell aggregates)
Type: cell-based
Parameters: expressed in transfected cells; host or cells: COS7
Details: chick embryonic DRG explants co-cultured with semaphorin3A-COS in collagen gel
Description: The growth cone collapse assay and collagen co-culture experiments were performed as previously described. To examine the effects of SM-345431-silicone, small pieces (2 × 1 × 0.3 mm; approximately 1 mg containing 1 μg of SM-345431) of the SM-345431-silicone or control-silicone were placed in a collagen gel adjacent to E8 chick DRGs and COS7 cell aggregates, as shown in Figure 1C.

CC(=O)c1cc2c(=O)c3c(C(=O)O)c(O)c(O)cc3oc2c(C(C)=O)c1-c1coc2cc(O)c(O)c(C(=O)O)c2c1=O [SM-345431, Vinaxanthone]
block of the chemo-repulsive effects of semaphorin3A on DRG neurites: chemo-repulsive effects of semaphorin3A were blocked by SM-345431 in a dose-dependent manner
